In the kinase profiling compilation of Christmann-Franck et al. (2016):

How the values were obtained:
Assay in all cases: KINOMEscan competition binding
Details in all cases: compound 10.0 µM
[1] = target: MAP3K13 (human) (UniProt O43283)
[2] = target: MAPK8 (human) (UniProt P45983)
[3] = target: IRAK1 (human) (UniProt P51617)
[4] = target: PDGFRB (human) (UniProt P09619)
[5] = target: MKNK2 (human) (UniProt Q9HBH9)
[6] = target: MATK (human) (UniProt P42679)
[7] = target: RIPK1 (human) (UniProt Q13546)
[8] = target: PAK7 (human) (UniProt Q9P286)
[9] = target: AKT1 (human) (UniProt P31749)
[10] = target: EPHA7 (human) (UniProt Q15375)
[11] = target: MAP3K12 (human) (UniProt Q12852)
[12] = target: OXSR1 (human) (UniProt O95747)
[13] = target: LCK (human) (UniProt P06239)
[14] = tested on: CPK1 (P.falciparum)
[15] = target: FES (human) (UniProt P07332)
[16] = target: CDK11B (human) (UniProt P21127)
[17] = target: IKBKE (human) (UniProt Q14164)
[18] = target: NEK11 (human) (UniProt Q8NG66)
[19] = target: SRPK2 (human) (UniProt P78362)
[20] = target: SRMS (human) (UniProt Q9H3Y6)
[21] = target: ACVRL1 (human) (UniProt P37023)
[22] = target: ACVR1 (human) (UniProt Q04771)
[23] = target: NEK1 (human) (UniProt Q96PY6)
[24] = target: DSTYK (human) (UniProt Q6XUX3)
[25] = target: CAMK4 (human) (UniProt Q16566)
[26] = target: MAP2K4 (human) (UniProt P45985)
[27] = target: EPHA3 (human) (UniProt P29320)
[28] = target: RPS6KA6 KD2 (human) (UniProt Q9UK32)
[29] = target: CSNK1G3 (human) (UniProt Q9Y6M4)
[30] = target: CAMKK1 (human) (UniProt Q8N5S9)
[31] = target: STK32C (human) (UniProt Q86UX6)
[32] = target: FLT1 (human) (UniProt P17948)
[33] = target: TNK2 (human) (UniProt Q07912)
[34] = target: CDK4 CCND1 (human) (UniProt P11802+P24385)
[35] = target: PKN2 (human) (UniProt Q16513)
[36] = target: ERN1 (human) (UniProt O75460)
[37] = target: EPHA4 (human) (UniProt P54764)
[38] = target: MAP4K5 (human) (UniProt Q9Y4K4)
[39] = tested on: ABL1 (human), P00519 [Y253F]
[40] = target: AURKC (human) (UniProt Q9UQB9)

NEK11 (human), sequence (Q8NG66 whole entry, looked up): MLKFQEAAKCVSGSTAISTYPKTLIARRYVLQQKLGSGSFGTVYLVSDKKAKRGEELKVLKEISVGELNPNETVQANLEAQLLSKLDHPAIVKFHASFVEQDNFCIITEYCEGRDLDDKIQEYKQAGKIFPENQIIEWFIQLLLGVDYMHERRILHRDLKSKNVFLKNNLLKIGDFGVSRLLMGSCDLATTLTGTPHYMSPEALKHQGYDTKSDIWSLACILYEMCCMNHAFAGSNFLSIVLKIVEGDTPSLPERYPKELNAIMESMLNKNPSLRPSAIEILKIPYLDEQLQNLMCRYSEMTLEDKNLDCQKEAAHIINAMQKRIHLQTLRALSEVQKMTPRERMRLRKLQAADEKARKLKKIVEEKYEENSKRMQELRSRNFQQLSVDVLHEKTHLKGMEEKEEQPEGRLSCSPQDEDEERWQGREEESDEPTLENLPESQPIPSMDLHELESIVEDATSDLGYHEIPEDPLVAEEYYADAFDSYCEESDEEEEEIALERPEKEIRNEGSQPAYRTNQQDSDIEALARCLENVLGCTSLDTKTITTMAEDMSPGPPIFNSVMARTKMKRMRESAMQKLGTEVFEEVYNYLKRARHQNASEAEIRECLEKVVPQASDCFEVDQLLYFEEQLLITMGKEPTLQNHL
MAPK8 (human), sequence (P45983 whole entry, looked up): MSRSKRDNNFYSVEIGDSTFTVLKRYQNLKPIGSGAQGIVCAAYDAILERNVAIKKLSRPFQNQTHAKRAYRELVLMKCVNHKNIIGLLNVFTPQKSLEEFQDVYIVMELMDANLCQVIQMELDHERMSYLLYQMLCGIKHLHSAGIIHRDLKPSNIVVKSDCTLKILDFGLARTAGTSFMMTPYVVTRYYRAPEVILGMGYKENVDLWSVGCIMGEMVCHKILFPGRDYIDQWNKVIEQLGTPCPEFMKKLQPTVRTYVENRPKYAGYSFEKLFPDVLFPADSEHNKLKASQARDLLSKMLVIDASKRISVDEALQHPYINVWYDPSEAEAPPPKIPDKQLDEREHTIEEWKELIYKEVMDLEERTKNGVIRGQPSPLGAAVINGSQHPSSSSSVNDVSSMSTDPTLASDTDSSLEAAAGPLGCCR
PDGFRB (human), sequence (P09619 whole entry, looked up): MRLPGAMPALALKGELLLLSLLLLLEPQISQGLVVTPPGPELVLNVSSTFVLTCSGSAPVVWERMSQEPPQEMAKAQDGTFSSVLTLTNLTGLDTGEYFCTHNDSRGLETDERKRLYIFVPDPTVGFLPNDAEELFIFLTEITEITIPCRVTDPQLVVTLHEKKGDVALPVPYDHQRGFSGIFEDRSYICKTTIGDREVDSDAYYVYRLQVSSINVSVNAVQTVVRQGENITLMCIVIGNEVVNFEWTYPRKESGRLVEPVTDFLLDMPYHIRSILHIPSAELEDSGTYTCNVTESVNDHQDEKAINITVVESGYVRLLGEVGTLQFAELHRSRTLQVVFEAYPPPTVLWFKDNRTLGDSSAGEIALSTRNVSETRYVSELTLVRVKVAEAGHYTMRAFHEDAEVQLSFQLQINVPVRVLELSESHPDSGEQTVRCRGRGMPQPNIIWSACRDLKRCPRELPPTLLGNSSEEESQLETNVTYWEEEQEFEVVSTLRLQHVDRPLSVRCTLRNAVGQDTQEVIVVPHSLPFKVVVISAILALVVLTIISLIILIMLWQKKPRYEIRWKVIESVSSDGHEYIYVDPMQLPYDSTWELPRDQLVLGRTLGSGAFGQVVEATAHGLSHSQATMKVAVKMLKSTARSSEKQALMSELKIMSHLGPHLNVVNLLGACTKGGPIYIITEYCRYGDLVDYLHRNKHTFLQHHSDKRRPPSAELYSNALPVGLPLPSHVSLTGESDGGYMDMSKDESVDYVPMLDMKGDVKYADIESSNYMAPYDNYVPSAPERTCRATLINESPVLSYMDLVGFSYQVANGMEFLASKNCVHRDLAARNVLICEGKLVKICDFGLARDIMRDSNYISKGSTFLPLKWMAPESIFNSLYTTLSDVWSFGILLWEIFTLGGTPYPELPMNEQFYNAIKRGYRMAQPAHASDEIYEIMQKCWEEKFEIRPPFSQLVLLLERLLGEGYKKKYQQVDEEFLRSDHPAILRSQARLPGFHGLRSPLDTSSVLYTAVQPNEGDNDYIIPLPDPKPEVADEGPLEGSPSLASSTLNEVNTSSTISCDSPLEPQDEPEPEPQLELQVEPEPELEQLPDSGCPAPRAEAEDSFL
ERN1 (human), sequence (O75460 whole entry, looked up): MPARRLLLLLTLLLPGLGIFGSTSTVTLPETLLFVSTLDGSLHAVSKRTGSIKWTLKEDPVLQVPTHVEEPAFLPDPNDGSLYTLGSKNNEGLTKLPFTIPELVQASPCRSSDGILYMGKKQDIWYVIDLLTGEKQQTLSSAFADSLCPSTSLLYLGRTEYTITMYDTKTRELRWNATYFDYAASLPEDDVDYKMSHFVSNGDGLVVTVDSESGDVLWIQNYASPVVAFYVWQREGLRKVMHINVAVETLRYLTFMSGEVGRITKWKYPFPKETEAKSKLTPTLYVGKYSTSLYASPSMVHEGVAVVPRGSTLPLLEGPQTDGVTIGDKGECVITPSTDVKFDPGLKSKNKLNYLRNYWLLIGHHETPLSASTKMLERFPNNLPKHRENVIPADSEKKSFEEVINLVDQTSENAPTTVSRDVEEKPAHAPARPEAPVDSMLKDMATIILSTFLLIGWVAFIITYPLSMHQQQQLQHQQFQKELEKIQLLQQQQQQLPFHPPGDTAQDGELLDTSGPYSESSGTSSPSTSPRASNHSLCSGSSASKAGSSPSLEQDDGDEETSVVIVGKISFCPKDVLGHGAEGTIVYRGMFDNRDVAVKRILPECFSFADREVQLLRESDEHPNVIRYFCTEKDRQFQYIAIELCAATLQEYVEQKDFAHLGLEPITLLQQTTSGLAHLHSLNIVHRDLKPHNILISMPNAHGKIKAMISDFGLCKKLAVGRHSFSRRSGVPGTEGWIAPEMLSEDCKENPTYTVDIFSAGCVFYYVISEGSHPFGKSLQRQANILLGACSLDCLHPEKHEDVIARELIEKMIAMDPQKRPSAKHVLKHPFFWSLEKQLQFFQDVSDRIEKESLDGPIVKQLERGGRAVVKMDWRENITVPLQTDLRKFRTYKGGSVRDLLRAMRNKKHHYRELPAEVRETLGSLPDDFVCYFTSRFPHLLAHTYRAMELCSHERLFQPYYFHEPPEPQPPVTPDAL
ACVRL1 (human), sequence (P37023 whole entry, looked up): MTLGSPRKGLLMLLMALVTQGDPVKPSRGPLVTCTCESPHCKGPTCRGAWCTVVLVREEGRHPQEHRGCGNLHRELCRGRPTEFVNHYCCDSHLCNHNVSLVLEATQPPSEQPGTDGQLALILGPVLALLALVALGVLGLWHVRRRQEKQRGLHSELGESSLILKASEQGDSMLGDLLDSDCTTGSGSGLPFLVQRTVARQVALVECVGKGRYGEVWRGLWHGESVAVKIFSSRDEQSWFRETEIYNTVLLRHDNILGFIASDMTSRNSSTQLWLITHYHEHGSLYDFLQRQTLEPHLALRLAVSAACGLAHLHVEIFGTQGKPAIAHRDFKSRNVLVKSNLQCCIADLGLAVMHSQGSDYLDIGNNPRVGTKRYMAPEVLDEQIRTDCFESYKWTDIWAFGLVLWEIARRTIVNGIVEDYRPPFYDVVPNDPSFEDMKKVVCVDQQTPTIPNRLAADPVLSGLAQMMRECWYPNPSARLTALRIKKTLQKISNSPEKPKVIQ
MAP3K13 (human), sequence (O43283 whole entry, looked up): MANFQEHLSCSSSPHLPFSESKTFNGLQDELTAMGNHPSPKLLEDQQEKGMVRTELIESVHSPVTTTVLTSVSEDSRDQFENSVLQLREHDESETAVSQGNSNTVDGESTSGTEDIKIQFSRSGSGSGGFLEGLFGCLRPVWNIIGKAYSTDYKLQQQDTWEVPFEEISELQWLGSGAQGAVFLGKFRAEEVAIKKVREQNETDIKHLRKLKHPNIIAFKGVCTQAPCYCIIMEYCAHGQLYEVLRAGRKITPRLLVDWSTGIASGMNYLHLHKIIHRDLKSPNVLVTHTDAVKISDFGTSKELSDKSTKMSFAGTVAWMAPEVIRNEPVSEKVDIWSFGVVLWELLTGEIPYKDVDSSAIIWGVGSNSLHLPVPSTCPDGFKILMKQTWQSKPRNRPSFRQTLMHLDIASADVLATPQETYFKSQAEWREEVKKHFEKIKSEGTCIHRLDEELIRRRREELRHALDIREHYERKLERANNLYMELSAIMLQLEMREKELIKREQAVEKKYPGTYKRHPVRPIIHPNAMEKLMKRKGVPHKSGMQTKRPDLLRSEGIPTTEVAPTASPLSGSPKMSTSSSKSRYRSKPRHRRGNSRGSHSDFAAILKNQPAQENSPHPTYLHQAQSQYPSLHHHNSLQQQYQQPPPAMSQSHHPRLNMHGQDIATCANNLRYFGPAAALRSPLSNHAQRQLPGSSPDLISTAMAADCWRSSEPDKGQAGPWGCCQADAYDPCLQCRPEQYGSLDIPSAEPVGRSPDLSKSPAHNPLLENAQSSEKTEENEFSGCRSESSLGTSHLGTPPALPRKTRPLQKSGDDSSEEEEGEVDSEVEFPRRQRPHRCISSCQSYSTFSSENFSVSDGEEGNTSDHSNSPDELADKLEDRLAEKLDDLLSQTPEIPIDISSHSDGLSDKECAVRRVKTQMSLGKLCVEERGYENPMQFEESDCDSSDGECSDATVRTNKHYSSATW
CSNK1G3 (human), sequence (Q9Y6M4 whole entry, looked up): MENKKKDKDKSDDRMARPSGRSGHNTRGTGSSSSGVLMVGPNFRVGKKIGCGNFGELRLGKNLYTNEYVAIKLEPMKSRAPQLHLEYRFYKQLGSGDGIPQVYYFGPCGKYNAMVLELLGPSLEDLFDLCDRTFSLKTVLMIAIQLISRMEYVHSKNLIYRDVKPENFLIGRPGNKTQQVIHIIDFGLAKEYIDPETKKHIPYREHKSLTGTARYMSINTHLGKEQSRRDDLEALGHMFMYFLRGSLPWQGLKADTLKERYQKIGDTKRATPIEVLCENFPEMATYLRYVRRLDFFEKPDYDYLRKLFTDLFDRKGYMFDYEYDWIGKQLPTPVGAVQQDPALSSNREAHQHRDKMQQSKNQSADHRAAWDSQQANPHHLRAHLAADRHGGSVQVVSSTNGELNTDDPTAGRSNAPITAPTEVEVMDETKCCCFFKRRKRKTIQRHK

C=CC(=O)Nc1cc(-n2c(=O)ccc3cnc4ccc(-c5cn[nH]c5)cc4c32)ccc1C
kinase still bound, per cent of control [1]: 84% | kinase still bound, per cent of control [2]: 1.9% | kinase still bound, per cent of control [3]: 41% | kinase still bound, per cent of control [4]: 5.6% | kinase still bound, per cent of control [5]: 0.15% | kinase still bound, per cent of control [6]: 100% | kinase still bound, per cent of control [7]: 100% | kinase still bound, per cent of control [8]: 95% | kinase still bound, per cent of control [9]: 89% | kinase still bound, per cent of control [10]: 99% | kinase still bound, per cent of control [11]: 76% | kinase still bound, per cent of control [12]: 79% | kinase still bound, per cent of control [13]: 64% | kinase still bound, per cent of control [14]: 11% | kinase still bound, per cent of control [15]: 100% | kinase still bound, per cent of control [16]: 100% | kinase still bound, per cent of control [17]: 100% | kinase still bound, per cent of control [18]: 100% | kinase still bound, per cent of control [19]: 96% | kinase still bound, per cent of control [20]: 75% | kinase still bound, per cent of control [21]: 42% | kinase still bound, per cent of control [22]: 29% | kinase still bound, per cent of control [23]: 93% | kinase still bound, per cent of control [24]: 70% | kinase still bound, per cent of control [25]: 100% | kinase still bound, per cent of control [26]: 14% | kinase still bound, per cent of control [27]: 100% | kinase still bound, per cent of control [28]: 67% | kinase still bound, per cent of control [29]: 84% | kinase still bound, per cent of control [30]: 59% | kinase still bound, per cent of control [31]: 100% | kinase still bound, per cent of control [32]: 100% | kinase still bound, per cent of control [33]: 100% | kinase still bound, per cent of control [34]: 100% | kinase still bound, per cent of control [35]: 82% | kinase still bound, per cent of control [36]: 50% | kinase still bound, per cent of control [37]: 97% | kinase still bound, per cent of control [38]: 93% | kinase still bound, per cent of control [39]: 71% | kinase still bound, per cent of control [40]: 100%

COCC(=O)NC/C=C/c1ccc2ncnc(Nc3ccc(Oc4ccc(C)nc4)c(C)c3)c2c1
kinase still bound, per cent of control [1]: 80% | kinase still bound, per cent of control [2]: 66% | kinase still bound, per cent of control [3]: 100% | kinase still bound, per cent of control [4]: 46% | kinase still bound, per cent of control [5]: 1.4% | kinase still bound, per cent of control [6]: 100% | kinase still bound, per cent of control [7]: 100% | kinase still bound, per cent of control [8]: 87% | kinase still bound, per cent of control [9]: 100% | kinase still bound, per cent of control [10]: 100% | kinase still bound, per cent of control [11]: 92% | kinase still bound, per cent of control [12]: 100% | kinase still bound, per cent of control [13]: 59% | kinase still bound, per cent of control [14]: 25% | kinase still bound, per cent of control [15]: 100% | kinase still bound, per cent of control [16]: 100% | kinase still bound, per cent of control [17]: 100% | kinase still bound, per cent of control [18]: 100% | kinase still bound, per cent of control [19]: 92% | kinase still bound, per cent of control [20]: 71% | kinase still bound, per cent of control [21]: 84% | kinase still bound, per cent of control [22]: 90% | kinase still bound, per cent of control [23]: 83% | kinase still bound, per cent of control [24]: 75% | kinase still bound, per cent of control [25]: 86% | kinase still bound, per cent of control [26]: 95% | kinase still bound, per cent of control [27]: 97% | kinase still bound, per cent of control [28]: 88% | kinase still bound, per cent of control [29]: 100% | kinase still bound, per cent of control [30]: 96% | kinase still bound, per cent of control [31]: 86% | kinase still bound, per cent of control [32]: 88% | kinase still bound, per cent of control [33]: 78% | kinase still bound, per cent of control [34]: 100% | kinase still bound, per cent of control [35]: 99% | kinase still bound, per cent of control [36]: 82% | kinase still bound, per cent of control [37]: 98% | kinase still bound, per cent of control [38]: 86% | kinase still bound, per cent of control [40]: 67%
